Experimental data taken from PubChem BioAssay (NCI).
Several values for one entry are separate records, joined by “and”; a condition that tells them apart may be missing. Equal entries are not always repeated.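 Exposure lasted 48 hours, with cells grown in 96-well plates and compounds tested at five concentrations. GI50 = concentration required for 50% inhibition of growth. TGI: concentration producing complete growth inhibition.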

Columns and labels:
Experiment in all cases: DTP human tumour cell line panel, 48 h
A549 NSCLC = system: A549 NSCLC
CCRF-CEM leukemia = system: CCRF-CEM leukemia
HOP-62 NSCLC = system: HOP-62 NSCLC
IGROV1 ovarian = system: IGROV1 ovarian
MDA-MB-435 = system: MDA-MB-435
RPMI-8226 leukemia = system: RPMI-8226 leukemia
SF-539 CNS = system: SF-539 CNS
SK-MEL-5 melanoma = system: SK-MEL-5 melanoma
SR leukemia = system: SR leukemia
SW-620 colon = system: SW-620 colon
U251 CNS = system: U251 CNS
UACC-62 melanoma = system: UACC-62 melanoma

Structure (SMILES)	TGI (A549 NSCLC) [µM]	GI50 (CCRF-CEM leukemia) [µM]	TGI (CCRF-CEM leukemia) [µM]	GI50 (HOP-62 NSCLC)	TGI (HOP-62 NSCLC)	GI50 (IGROV1 ovarian)	TGI (IGROV1 ovarian) [µM]	GI50 (MDA-MB-435)	TGI (MDA-MB-435)	TGI (RPMI-8226 leukemia) [µM]	GI50 (SF-539 CNS)	TGI (SF-539 CNS)	TGI (SK-MEL-5 melanoma)	TGI (SR leukemia) [µM]	TGI (SW-620 colon) [µM]	GI50 (U251 CNS)	TGI (U251 CNS)	GI50 (UACC-62 melanoma)	TGI (UACC-62 melanoma)
C=CCN1C(=O)/C(=C/c2ccc(OC)cc2)N=C1SC1OC(COC(C)=O)C(OC(C)=O)C(OC(C)=O)C1OC(C)=O (stereo not drawn)	> 100	21.7	> 100	17.5 µM and 90 µM	40 µM and > 100 µM	20.4 µM and 75.4 µM	> 100	18.6 µM and > 100 µM	46.5 µM and > 100 µM	> 100	19.9 µM and 42.8 µM	44.5 µM and > 100 µM	45.2 µM and > 100 µM	> 100	> 100	14.8 µM and 99.1 µM	58.8 µM and > 100 µM	18.8 µM and 43.6 µM	48.1 µM and > 100 µM
N#CCCN(CCCN(C(=O)Nc1ccc(NC(=O)N(CCCN(CCC#N)C(N)=O)c2ccccc2)cc1)c1ccccc1)C(N)=O	> 100		> 100		> 100 µM				> 100 µM	> 100		> 100 µM	> 100 µM	> 100	> 100		> 100 µM		> 100 µM
Cc1ccc2nc(-c3ccc(-c4nc5ccc(C)cc5o4)c(O)c3)oc2c1	> 100		> 100		> 100 µM				> 100 µM	> 100		> 100 µM	> 100 µM	> 100	> 100		> 100 µM		> 100 µM
CC(C(=O)O)C1Nc2ccccc2NC1=O (stereo not drawn)	> 100		> 100				> 100		> 100 µM	> 100		> 100 µM	> 100 µM	> 100	> 100		> 100 µM		> 100 µM
Oc1ccccc1-c1n[nH]c(-c2ccccc2O)n1	> 100		> 100		> 100 µM		> 100		> 100 µM	> 31.1		> 100 µM	> 100 µM	> 100	> 100		> 100 µM		> 100 µM
C=C1C(=O)OC2/C=C(\C)CC/C=C(\C)CC(OC(=O)/C(=C/CO)CO)[C@@H]12 (stereo partly drawn)	57.3		6.75				26.1		19 µM	5.74		26.3 µM	26.1 µM	> 23.8	3.36		4.71 µM		34.2 µM
CC(C)(C)OC(=O)NCC(=O)N(CCc1ccc(Cl)c(Cl)c1)CCN1CCCC1	37.7		28.4		27.7 µM		31.5		28.4 µM	23.8		32.8 µM	28.4 µM	32.2	37.3		28.7 µM		32.2 µM
[O-]/[N+](=N/c1ncc(-c2ccccc2)cn1)c1ncc(-c2ccccc2)cn1	> 100		> 100		> 100 µM		> 100		> 100 µM	> 100		> 100 µM	> 100 µM	> 100	> 100		> 100 µM		> 100 µM
O=C1/C(=C/c2ccc(OC(=O)c3ccc(Cl)cc3)cc2)CCC/C1=C\c1ccc(OC(=O)c2ccc(Cl)cc2)cc1	> 100		> 100		> 100 µM		> 100		> 100 µM	> 100		> 100 µM	> 100 µM	> 100	> 100		> 100 µM		> 100 µM
CN(C)c1cccc(/C=C(\C#N)c2ccccc2)c1	> 79.9		> 37.3		8.65 µM		> 72.5		0.18 µM	> 42.8		4.32 µM	21 µM	> 8.15	> 56		27.1 µM		> 100 µM
O=C1Nc2ccccc2/C1=N/N1C(=O)/C(=C/c2ccccc2S)N=C1c1ccccc1	> 100		> 100		> 100 µM		> 100		> 100 µM	> 100		> 100 µM	> 100 µM	> 100	> 100		> 100 µM		> 100 µM
N#Cc1nc(-c2ccc(-c3nc(C#N)c(N)o3)cc2)oc1N	> 10		> 10		> 10 µM		> 10		> 10 µM	> 10		> 10 µM	> 10 µM	> 10	> 10				> 10 µM
COc1ccc2c(c1)C1c3ccccc3CCN1CCC2 (stereo not drawn)	> 100		> 100		> 100 µM		> 100		51.1 µM	96.8		> 100 µM	> 100 µM	> 100	> 100		> 100 µM		> 100 µM
Cc1ccc(S(=O)(=O)OI(O)CC(F)(F)F)cc1	> 100		> 100		> 100 µM		> 100		> 100 µM	> 100		> 100 µM	> 100 µM	> 100	> 100		> 100 µM		> 100 µM
CC(=O)c1sc2n(C)c(=O)c3ccccc3[n+]2c1C	> 100		> 100		> 100 µM		> 100		> 100 µM	> 100		> 100 µM	> 100 µM	> 100	> 100		> 100 µM		> 100 µM
Nc1ncnc2c1ncn2[C@@H]1C[C@H](NO)[C@@H](O)[C@H]1O	> 100		> 100		> 100 µM		> 100		> 100 µM	> 100		> 100 µM	> 100 µM	> 100	> 100		> 100 µM		> 100 µM
N#CCN1CCN(CC#N)CCN(CC#N)CCN(CC#N)CC1	> 100		> 100		> 100 µM		> 100		> 100 µM	> 100		> 100 µM	> 100 µM	> 100	> 100		> 100 µM		> 100 µM
COc1cc(/C=C2\C(=O)N(c3ccc(NC(C)=O)cc3)C(c3ccccc3)S2(=O)=O)cc(OC)c1OC (stereo not drawn)	> 100		> 100		> 100 µM		> 100		> 100 µM	> 100		> 100 µM	> 100 µM	> 100	> 100		> 100 µM		> 100 µM
